In patent publication US7109364B2, “Group of anti-cancer compounds with specific structure and their production method” (priority 2000, dated 2006):
≈ marks a conversion by molar mass, not a printed value. Like-named read-outs stand apart in the source and are kept apart here.

Columns and labels:
[1] = test system: K562 human leukemia cell line; assay: In vitro anti-cancer efficacy, K562, trypan blue dye exclusion, 48 hours; assay type: cell-based; conditions: for IC50 / IC90: Homo sapiens; for IC50: read-out: K562 IC50; for IC90: read-out: K562 IC90
Procedure: (§1) The above compounds were dissolved in DMSO at stock concentration of 10 mg/ml and stored at 4° C. Before each experiment they were diluted to desired concentration with serum-free RPMI 1640 medium
1. K562 human leukemia cell line: K562 cells were maintained in RPMI 1640 medium with 5% fetal bovine serum at 37° C. under 5% CO2 atmosphere. 4×10^4 cells/well were plated on 96-well plate. After treatment with the test compounds and solvent control (DMSO) for 48 hours, numbers of live cells were counted by trypan blue dye exclusion.
(§2) Reagents and Methods: same as in Experiment 1.

[2] = test system: B16 mouse melanoma cell line; assay: In vitro anti-cancer efficacy, B16, SRB method, 48 hours; assay type: cell-based; conditions: for IC50 / IC90: Mus musculus; for IC50: read-out: B16 IC50; for IC90: read-out: B16 IC90
Procedure: as §1
2. B16 mouse melanoma cell line: B16 cells were maintained under the same condition as above. 2×10^4 cells/well were plated on 48-well plate and left for 12 hours for attachment. Cells were then treated with the test compounds and solvent control for 48 hours. Numbers of live cells were determined by SRB method. Briefly, cells were fixed with 50 μl/well 15% TCA for 1 hour, and then washed three times with double-distilled water. After drying 50 μl/well 1% SRB dye was added and reacted for 10 minutes. Plate was washed with 1% acetic acid. 0.2 ml Tris buffer (pH 9.6) was added and OD510 was recorded.
as §2

[3] = test system: Mouse cervical carcinoma U14; assay: In vivo anti-cancer efficacy, solid tumor model
Description: Mouse cervical carcinoma U14 model was used to compare in vivo anti-cancer efficacy of 15-methyl-2-hexadecenoic acid, 13-methyl-tetradecanoic acid and the chemotherapy drug cytoxan (CTX).
40 male ICR strain mice, weighing 19–22 g, were randomly divided into 4 groups of 10 each. U14 cervical carcinoma mass (about 2 mm^3 each) was transplanted subcutaneously into the right armpits of all animals following standard procedure. The test group was given 15-methyl-2-hexadecenoic acid and 13-methyl-tetradecanoic acid at 0.4 g/kg, respectively, intragastrically (i.g.) daily for 11 days. The positive control group was given a single dose of CTX i.g. (25 mg/kg) on day 1. Negative control group was given normal saline (N.S.) at 0.2 ml/10 g daily for 11 days. On the 12th day, all mice were sacrificed and the tumors were isolated and weighed. The tumor inhibition rate (TIR) was calculated and subject to t test.

[4] = K562, Table 2, unit inferred, methods same as in Experiment 1
[5] = Table 2, unit inferred, methods same as in Experiment 1

Compound	IC50 ([1]; K562, Table 1, 48 hours) [µg/mL]	IC90 ([1]; K562, Table 1, 48 hours) [µg/mL]	IC50 ([2]; Table 1, 48 hours) [µg/mL]	IC90 ([2]; Table 1, 48 hours) [µg/mL]	also measured
CC(C)CCCCCCCCCCCC(=O)N1CCC[C@H]1C(=O)O [Compound 10, N-(13-methyl-tetradecanoyl)-L-proline]					IC50 ([1]; K562, 48 h): 17.2 µg/mL (≈ 50.7 µM); IC90 ([1]; K562, 48 h): 25.3 µg/mL (≈ 74.5 µM); IC50 ([2]; 48 h): 15.2 µg/mL (≈ 44.8 µM); IC90 ([2]; 48 h): 17.3 µg/mL (≈ 51 µM)
CCN(CC)C(=O)CCCCCCCCCCCC(C)C [Compound 13, N,N-Diethyl-13-methyl-tetradecanamide]	9.1 (≈ 30.6 µM)	42.4 (≈ 143 µM)	19.3 (≈ 64.9 µM)	31.9 (≈ 107 µM)	
CC(C)CCCCCCCCCCCC(=O)Nc1ccc(S(=O)(=O)O)cc1 [Compound 2, N-(4-Sulfo-phenyl)-13-methyl tetradecamide]					K562 IC50 ([1]; Table 1, 48 hours): 27.1 µg/mL; K562 IC90 ([1]; Table 1, 48 hours): 37.8 µg/mL; B16 IC50 ([2]; Table 1, 48 hours): 25.4 µg/mL; B16 IC90 ([2]; Table 1, 48 hours): 35.7 µg/mL
CC(C)(C)CCCCCCCCCCCCc1ccc(O)cc1O [Compound 22, (13,13-Dimethyl tetradecyl)-2,4-dihydroxy phene]					K562 IC50 ([1]; Table 1, 48 hours): 3.92 µg/mL; K562 IC90 ([1]; Table 1, 48 hours): 5.36 µg/mL; B16 IC50 ([2]; Table 1, 48 hours): 3.63 µg/mL; B16 IC90 ([2]; Table 1, 48 hours): 5.42 µg/mL
CC(C)CCCCCCCCCCCC(=O)NCC(=O)O [Compound 3, N-(13-methyl-tetradecanoyl)glycine]	14.7 (≈ 49.1 µM)	21.9 (≈ 73.1 µM)	12.8 (≈ 42.7 µM)	20.1 (≈ 67.1 µM)	
CC(C)CCCCCCCCCCCC(=O)N[C@H](C(=O)O)C(C)C [Compound 6, N-(13-methyl-tetradecanoyl)-L-valine]	18.1 (≈ 53 µM)	22.5 (≈ 65.9 µM)	11.7 (≈ 34.3 µM)	19.2 (≈ 56.2 µM)	
CC(C)CCCCCCCCCCCC(=O)N[C@@H](Cc1ccccc1)C(=O)O [Compound 5, N-(13-methyl-tetradecanoyl)-L-phenylalanine]	10.3 (≈ 26.4 µM)	19.6 (≈ 50.3 µM)	13.4 (≈ 34.4 µM)	20.5 (≈ 52.6 µM)	
CC(C)CCCCCCCCCCCC(=O)Nc1ccc(C(=O)O)c(O)c1 [Compound 12, N-(3-Hydroxy-4-carboxylphenyl)-13-methyl-tetradecanamide]	18.7 (≈ 49.5 µM)	24.7 (≈ 65.4 µM)	16.5 (≈ 43.7 µM)	22.9 (≈ 60.7 µM)	
CC(C)CCCCCCCCCCCCc1ccc(O)c(O)c1O [Compound 24, (13-Methyl tetradecyl)-2,3,4-trihydroxy phene]					K562 IC50 ([1]; Table 1, 48 hours): 13.6 µg/mL; K562 IC90 ([1]; Table 1, 48 hours): 19.2 µg/mL; B16 IC50 ([2]; Table 1, 48 hours): 12.8 µg/mL; B16 IC90 ([2]; Table 1, 48 hours): 19.5 µg/mL
CC(C)CCCCCCCCCCCCc1ccc(O)cc1O [Compound 21, (13-Methyl tetradecyl)-2,4-dihydroxy phene]					K562 IC50 ([1]; Table 1, 48 hours): 3.62 µg/mL; K562 IC90 ([1]; Table 1, 48 hours): 5.25 µg/mL; B16 IC50 ([2]; Table 1, 48 hours): 3.22 µg/mL; B16 IC90 ([2]; Table 1, 48 hours): 5.14 µg/mL
CC(C)CCCCCCCCCCCC(=O)N1CCCC1 [Compound 15, N-(13-Methyl-tetradecanoyl)pyrrolidine]	16.2 (≈ 54.8 µM)	25 (≈ 84.6 µM)	13.1 (≈ 44.3 µM)	17.3 (≈ 58.5 µM)	
CC(C)CCCCCCCCCCCC(=O)N1CCOCC1 [Compound 16, N-(13-Methyl-tetradecanoyl)morpholine]	15.9 (≈ 51 µM)	20.4 (≈ 65.5 µM)	11.9 (≈ 38.2 µM)	19.2 (≈ 61.6 µM)	
CC(C)CCCCCCCCCCCNc1ccc(O)c(O)c1 [Compound 26, N-(12-Methyl-tridecyl)-4-amino-1,2-benzenediol]	6.73 (≈ 20.9 µM)	13.5 (≈ 42 µM)	5.81 (≈ 18.1 µM)	12.6 (≈ 39.2 µM)	
CC(C)CCCCCCCC=CCCCCC(=O)O [15-methyl-6-hexadecenoic acid]					IC50 [1, 4]: 23.8 µg/mL (≈ 88.7 µM); IC90 [1, 4]: 30.5 µg/mL (≈ 114 µM); IC50 [2, 5]: 21.3 µg/mL (≈ 79.3 µM); IC90 [2, 5]: 35.2 µg/mL (≈ 131 µM)
CC[C@H](C)[C@H](NC(=O)CCCCCCCCCCCC(C)C)C(=O)O [Compound 8, N-(13-methyl-tetradecanoyl)-L-isoleucine]	19.3 (≈ 54.3 µM)	28.6 (≈ 80.4 µM)	11.1 (≈ 31.2 µM)	18.9 (≈ 53.2 µM)	
CC(C)CCCCCCCCCCC(=O)c1ccc(O)cc1O [Compound 18, (2,4,-dihydroxy phenyl)-12-methyl tridecanone]					K562 IC50 ([1]; Table 1, 48 hours): 6.42 µg/mL; K562 IC90 ([1]; Table 1, 48 hours): 8.90 µg/mL; B16 IC50 ([2]; Table 1, 48 hours): 5.91 µg/mL; B16 IC90 ([2]; Table 1, 48 hours): 8.12 µg/mL
(2,3,4-Trihydroxy phenyl)-12-methyl tridecanone [Compound 20]					K562 IC50 ([1]; Table 1, 48 hours): 15.3 µg/mL; K562 IC90 ([1]; Table 1, 48 hours): 20.2 µg/mL; B16 IC50 ([2]; Table 1, 48 hours): 14.8 µg/mL; B16 IC90 ([2]; Table 1, 48 hours): 19.32 µg/mL
CC(C)CCCCCCCCCCCCNc1ccc(O)c(O)c1 [Compound 32, N-(13-Methyltetradecyl)-4-amino-1,2-benzenediol]	6.31 (≈ 18.8 µM)	11.5 (≈ 34.3 µM)	5.75 (≈ 17.1 µM)	10.6 (≈ 31.6 µM)	
CCC(C)CCCCCCCCCCCc1ccc(O)cc1O (stereo not drawn) [Compound 23, (12-Methyl tetradecyl)-2,4-dihydroxy phene]					K562 IC50 ([1]; Table 1, 48 hours): 9.51 µg/mL; K562 IC90 ([1]; Table 1, 48 hours): 14.6 µg/mL; B16 IC50 ([2]; Table 1, 48 hours): 8.81 µg/mL; B16 IC90 ([2]; Table 1, 48 hours): 13.8 µg/mL
CC(C)CCCCCCCCCCCC(=O)O [13-methyl-tetradecanoic acid]					TIR (tumor inhibition rate) ([3]; day 12, test compounds 0.4 g/kg i.g. daily 11 days, CTX 25 mg/kg i.g. single dose): 64.6%; Tumor W. ([3]; day 12, test compounds 0.4 g/kg i.g. daily 11 days, CTX 25 mg/kg i.g. single dose, ± SD): 0.93 ± 0.32 g; Body W. D1 ([3]; mouse, in vivo): 20.7 ± 0.7 g
CC(C)CCCCCCCCCCCCCC(=O)O [15-methyl-hexadecanoic acid, reference compound]					IC50 [1, 4]: 25.9 µg/mL (≈ 95.8 µM); IC90 [1, 4]: 35.6 µg/mL (≈ 132 µM); IC50 [2, 5]: 20.7 µg/mL (≈ 76.5 µM); IC90 [2, 5]: 38.2 µg/mL (≈ 141 µM)
CC(C)CCCCCCCCCCC(Br)C(=O)O (stereo not drawn) [Compound 27, 2-Bromo-13-methyl-tetradecanoic acid]	7.21 (≈ 22.4 µM)	10.1 (≈ 31.4 µM)	6.1 (≈ 19 µM)	11.2 (≈ 34.9 µM)	
CC(C)CCCCCCCC(=O)O [9-methyl-decanoic acid, reference compound]					IC50 [1, 4]: 55.5 µg/mL (≈ 298 µM); IC90 [1, 4]: 87 µg/mL (≈ 467 µM); IC50 [2, 5]: 97 µg/mL (≈ 521 µM); IC90 [2, 5]: 280 µg/mL (≈ 1500 µM)
CC(C)CC=CCCCCC(=O)O [9-methyl-6-decenoic acid]					IC50 [1, 4]: 50.8 µg/mL (≈ 276 µM); IC90 [1, 4]: 83 µg/mL (≈ 450 µM); IC50 [2, 5]: 90 µg/mL (≈ 488 µM); IC90 [2, 5]: 269 µg/mL (≈ 1460 µM)
CC(C)CCCCCCCCCCCNc1ccc(S(=O)(=O)O)cc1 [Compound 25, N-(12-Methyltridecyl)-4-amino benzenesulfonic acid]	15.1 (≈ 40.9 µM)	20 (≈ 54.1 µM)	13.5 (≈ 36.5 µM)	18.8 (≈ 50.9 µM)	
(2,4,6-Trihydroxyphenyl)-12-methyl tridecanone [Compound 19]					K562 IC50 ([1]; Table 1, 48 hours): 5.13 µg/mL; K562 IC90 ([1]; Table 1, 48 hours): 6.80 µg/mL; B16 IC50 ([2]; Table 1, 48 hours): 4.93 µg/mL; B16 IC90 ([2]; Table 1, 48 hours): 6.11 µg/mL

More lines, main results first:

IC50 ([1]; K562, Table 1, 48 hours) [µg/mL]	IC90 ([1]; K562, Table 1, 48 hours) [µg/mL]	IC50 ([2]; Table 1, 48 hours) [µg/mL]	IC90 ([2]; Table 1, 48 hours) [µg/mL]	Compound	also measured
19.7 (≈ 76.5 µM)	28.6 (≈ 111 µM)	17.4 (≈ 67.6 µM)	25.3 (≈ 98.3 µM)	CC(C)CCCCCCCCCCC(N)C(=O)O (stereo not drawn) [Compound 28, 2-Amino-13-methyl-tetradecanoic acid]	
11.2 (≈ 35.7 µM)	20.7 (≈ 66 µM)	14.8 (≈ 47.2 µM)	18.4 (≈ 58.7 µM)	CC(C)CCCCCCCCCCCC(=O)N[C@@H](C)C(=O)O [Compound 4, N-(13-methyl-tetradecanoyl)-L-alanine]	
28.2 (≈ 75.9 µM)	37.9 (≈ 102 µM)	26.3 (≈ 70.8 µM)	35.1 (≈ 94.5 µM)	CC(C)CCCCCCCCCCCC(=O)N[C@@H](CCC(=O)O)C(=O)O [Compound 9, N-(13-methyl-tetradecanoyl)-L-glutamic acid]	
18.4 (≈ 59.4 µM)	38.5 (≈ 124 µM)	17.2 (≈ 55.6 µM)	33.7 (≈ 109 µM)	CC(C)CCCCCCCCCCCC(=O)N1CCCCC1 [Compound 14, N-(13-Methyltetradecanoyl)piperidine]	
51.2 (≈ 278 µM)				CC(C)CCCCCC=CC(=O)O [Compound 33, 9-Methyl-2-decenoic acid]	IC50 [1, 4]: 26.7 µg/mL (≈ 145 µM); IC90 [1, 4]: 51.2 µg/mL (≈ 278 µM); IC50 [2, 5]: 40.5 µg/mL (≈ 220 µM); IC90 [2, 5]: 91 µg/mL (≈ 494 µM)
24.3 (≈ 60.2 µM)	38.1 (≈ 94.4 µM)	24.5 (≈ 60.7 µM)	34.6 (≈ 85.7 µM)	CC(C)CCCCCCCCCCCC(=O)N[C@@H](C=O)[C@@H](O)[C@H](O)[C@H](O)CO [Compound 11, N-(13-methyl-tetradecanoyl)-2-amino-2-deoxyglucose]	
11.8 (≈ 33.2 µM)	30.6 (≈ 86.1 µM)	10.4 (≈ 29.2 µM)	20.1 (≈ 56.5 µM)	CC(C)CCCCCCCCCCCC(=O)N[C@@H](CC(C)C)C(=O)O [Compound 7, N-(13-methyl-tetradecanoyl)-L-leucine]	
